In ChEMBL document CHEMBL1201862, “PubChem BioAssay data set” (2004):
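Protocol summary: plate cells (96-well), add compound at 5 concentrations, incubate 48 h, interpolate endpoints linearly. GI50 is the concentration that inhibits growth by half.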 The source made the active and inactive calls. Cut-off read from the data, not from the text of the source: active = GI50 up to about 1.1 µM and inactive = higher. Peptide text beside a SMILES is read from it. * marks the point of attachment. Cbz = O=C(OCc1ccccc1)*

What was measured:
Experiment in all cases: NCI-60 cell line screen, 48 h
A549 = test system: A549
CAKI-1 = test system: CAKI-1
DMS-114 = test system: DMS-114
HOP-62 = test system: HOP-62
Malme-3M = test system: Malme-3M
NCI-H23 = test system: NCI-H23
NCI-H460 = test system: NCI-H460
OVCAR-3 = test system: OVCAR-3
SF-295 = test system: SF-295
SK-OV-3 = test system: SK-OV-3
SNB-75 = test system: SNB-75
UO-31 = test system: UO-31
BT-549 = test system: BT-549
DU-145 = test system: DU-145
HCC 2998 = test system: HCC 2998
Hs-578T = test system: Hs-578T
MCF7 = test system: MCF7
MDA-MB-231 = test system: MDA-MB-231
NCI/ADR-RES = test system: NCI/ADR-RES
U-251 = test system: U-251

Row | SMILES | GI50 (A549) | GI50 (CAKI-1) | GI50 (DMS-114) | GI50 (HOP-62) | GI50 (Malme-3M) | GI50 (NCI-H23) | GI50 (NCI-H460) | GI50 (OVCAR-3) | GI50 (SF-295) | GI50 (SK-OV-3) | GI50 (SNB-75) | GI50 (UO-31) | GI50 (BT-549) | GI50 (DU-145) | GI50 (HCC 2998) | GI50 (Hs-578T) | GI50 (MCF7) | GI50 (MDA-MB-231) | GI50 (NCI/ADR-RES) | GI50 (U-251)
1 | O=C(CC1(O)C(=O)Nc2ccccc21)c1ccco1 (stereo unspecified) | > 100 µM (inactive) | > 100 µM (inactive) | > 100 µM (inactive) | > 100 µM (inactive) | > 100 µM (inactive) | > 100 µM (inactive) | > 100 µM (inactive) | > 100 µM (inactive) | > 100 µM (inactive) | > 100 µM (inactive) | 94.8 µM (inactive) | > 100 µM (inactive) |  |  |  |  |  |  |  | 
2 | CC(C)(O)CCc1ccc(O)c2c(=O)c3c(O)c4c(cc3oc12)O[C@H]1OC=C[C@@]41O [AUSTOCYSTIN D] | 0.726 µM (active) | < 0.01 µM (active) |  | 0.147 µM (active) | 1.08 µM (active) | < 0.01 µM (active) | 0.0507 µM (active) | < 0.01 µM (active) | 8.87 µM (inactive) | 0.0125 µM (active) | 0.0562 µM (active) | < 0.01 µM (active) | 9.06 µM (inactive) | < 0.01 µM (active) | < 0.01 µM (active) | 10.2 µM (inactive) | < 0.01 µM (active) | 2.26 µM (inactive) | < 0.01 µM (active) | < 0.01 µM (active)
3 | NS(=O)(=O)c1ccc(NC(=O)Nc2ccccc2F)cc1 | > 100 µM (inactive) | > 100 µM (inactive) |  | > 100 µM (inactive) | > 100 µM (inactive) | > 100 µM (inactive) | > 100 µM (inactive) | > 100 µM (inactive) | 0.243 µM (active) | > 100 µM (inactive) | > 100 µM (inactive) | 41.7 µM (inactive) | > 100 µM (inactive) | > 100 µM (inactive) | > 100 µM (inactive) | > 100 µM (inactive) | > 100 µM (inactive) | > 100 µM (inactive) | > 100 µM (inactive) | > 100 µM (inactive)
4 | Clc1ccc(CSCCc2ccncc2)cc1Cl | 28.1 µM (inactive) | 38.5 µM (inactive) |  | 22.6 µM (inactive) | 21 µM (inactive) | 22 µM (inactive) | 31.8 µM (inactive) | 16.1 µM (inactive) | 17.5 µM (inactive) | 27.8 µM (inactive) | 22.9 µM (inactive) | 21 µM (inactive) | 19.6 µM (inactive) | 29.2 µM (inactive) | 18.2 µM (inactive) | 23.4 µM (inactive) | 19.5 µM (inactive) | 15.4 µM (inactive) | 19.7 µM (inactive) | 15.2 µM (inactive)
5 | O=C1/C(=C/c2c(Cl)[nH]c3ccccc23)c2ccccc2N1c1ccccc1 | 5.18 µM (inactive) | 8.3 µM (inactive) |  | 4.94 µM (inactive) | 5.79 µM (inactive) | 5.32 µM (inactive) | 3.59 µM (inactive) | 1.79 µM (inactive) | 2.44 µM (inactive) | 2 µM (inactive) | 6.81 µM (inactive) | 6.46 µM (inactive) | 3.29 µM (inactive) | 7.43 µM (inactive) | 8.97 µM (inactive) | 3.9 µM (inactive) | 4.02 µM (inactive) | 6.4 µM (inactive) | 2.24 µM (inactive) | 5.05 µM (inactive)
6 | Brc1ccc(/N=C/C=C(\Nc2ccc(Br)cc2)C23CC4CC(CC(C4)C2)C3)cc1 | 22.5 µM (inactive) | 11.4 µM (inactive) |  | 19.1 µM (inactive) | 19.1 µM (inactive) | 16.9 µM (inactive) | 6.12 µM (inactive) | 14.1 µM (inactive) | 10 µM (inactive) | 18.6 µM (inactive) | 17 µM (inactive) | 17.7 µM (inactive) | 15.7 µM (inactive) | 14.5 µM (inactive) | 16 µM (inactive) | 27.4 µM (inactive) | 11 µM (inactive) | 15.6 µM (inactive) | 20 µM (inactive) | 14.4 µM (inactive)
7 | Nc1nc(Cl)c(Cl)c(NCC2(O)CCC2)n1 | 76.4 µM (inactive) | 16.1 µM (inactive) |  | 92.3 µM (inactive) | 62.7 µM (inactive) | 38.9 µM (inactive) | > 100 µM (inactive) | 51.2 µM (inactive) | 43.9 µM (inactive) | 39.3 µM (inactive) | > 100 µM (inactive) | 31.2 µM (inactive) | 44.6 µM (inactive) | > 100 µM (inactive) | 88.3 µM (inactive) | 51.3 µM (inactive) | 74.1 µM (inactive) | 74.1 µM (inactive) | 45 µM (inactive) | 92.7 µM (inactive)
8 | CCOC(=O)C/C(=N\c1cc(C)on1)N(CC)CC.[O-][Cl+3]([O-])([O-])O | > 100 µM (inactive) | > 100 µM (inactive) | > 100 µM (inactive) | > 100 µM (inactive) | > 100 µM (inactive) | > 100 µM (inactive) | > 100 µM (inactive) | > 100 µM (inactive) |  | > 100 µM (inactive) | > 100 µM (inactive) | > 100 µM (inactive) |  |  |  |  |  |  |  | > 100 µM (inactive)
9 | CCOC(=O)Nc1nc(-c2ccccc2)c(C)s1 | > 100 µM (inactive) | > 100 µM (inactive) |  | > 100 µM (inactive) | > 100 µM (inactive) | 81.1 µM (inactive) | 64 µM (inactive) | 98.9 µM (inactive) | > 100 µM (inactive) | > 100 µM (inactive) | 31.8 µM (inactive) | 60 µM (inactive) | 53.8 µM (inactive) | 52.6 µM (inactive) | > 100 µM (inactive) | > 100 µM (inactive) | 56.4 µM (inactive) | > 100 µM (inactive) | 59 µM (inactive) | > 100 µM (inactive)
10 | Cc1cc(NCCCCCCCCCC[n+]2c(C)cc(N)c3ccccc32)c2ccccc2n1 | 0.378 µM (active) | 9.68 µM (inactive) |  | 4.36 µM (inactive) | 1.82 µM (inactive) | 0.0708 µM (active) | 0.0638 µM (active) | 0.975 µM (active) | 0.861 µM (active) | 1.11 µM (active) | 0.853 µM (active) | 5.52 µM (inactive) | 1.86 µM (inactive) | 2.49 µM (inactive) | 0.675 µM (active) | 0.375 µM (active) | 0.313 µM (active) | 0.652 µM (active) | 12.6 µM (inactive) | 0.069 µM (active)
11 | CC(=O)NC1C(OCc2ccccc2)OC(CO)C(O)C1OCC(=O)N1CCCC1C(=O)NC(CCC(=O)NCCCCCNc1c2ccccc2nc2cccc([N+](=O)[O-])c12)C(N)=O (stereo unspecified) | 0.0134 µM (active) | 0.0262 µM (active) |  | 0.017 µM (active) | 0.0188 µM (active) | 0.0336 µM (active) | 0.00125 µM (active) | 0.0301 µM (active) | 0.048 µM (active) | 0.0869 µM (active) | 0.145 µM (active) | 0.0422 µM (active) | 0.0524 µM (active) | 0.0192 µM (active) | 0.00706 µM (active) | 0.0345 µM (active) | 0.003 µM (active) | 0.0175 µM (active) | 0.0726 µM (active) | 0.0108 µM (active)
12 | NCC(=O)C(O)C(O)C(O)CO (stereo unspecified) | > 100 µM (inactive) | > 100 µM (inactive) |  | > 100 µM (inactive) | > 100 µM (inactive) | > 100 µM (inactive) | > 100 µM (inactive) | > 100 µM (inactive) | > 100 µM (inactive) | > 100 µM (inactive) | 65.9 µM (inactive) | > 100 µM (inactive) | > 100 µM (inactive) | > 100 µM (inactive) | > 100 µM (inactive) | > 100 µM (inactive) | > 100 µM (inactive) | > 100 µM (inactive) | > 100 µM (inactive) | > 100 µM (inactive)
13 | [O-][n+]1onc2c3nn(-c4ccccc4)nc3ccc21 | > 100 µM (inactive) | > 100 µM (inactive) |  | 77.1 µM (inactive) | > 100 µM (inactive) | 41.6 µM (inactive) | > 100 µM (inactive) | 22.2 µM (inactive) | > 100 µM (inactive) | > 100 µM (inactive) | > 100 µM (inactive) | > 100 µM (inactive) | > 82.6 µM (inactive) | 17.8 µM (inactive) | 15.6 µM (inactive) | 32.1 µM (inactive) | 7.69 µM (inactive) | > 100 µM (inactive) | > 100 µM (inactive) | > 100 µM (inactive)
14 | C=C1c2nc3ccccc3n2C=C(c2ccc(C)cc2)N1c1ccc(C)cc1 | 52.6 µM (inactive) | > 100 µM (inactive) |  | > 100 µM (inactive) | > 63.2 µM (inactive) | > 59.6 µM (inactive) | 42.3 µM (inactive) | 64.7 µM (inactive) | 50.9 µM (inactive) | > 100 µM (inactive) | > 100 µM (inactive) | 46 µM (inactive) | 51.6 µM (inactive) | > 83.4 µM (inactive) | 22.5 µM (inactive) | > 100 µM (inactive) | 26.2 µM (inactive) | > 83.4 µM (inactive) | 17.9 µM (inactive) | 86.3 µM (inactive)
15 | CCOC(=O)C(C)NC(=O)C(C)NC(=O)C(C)NC(=O)C(C)NC(=O)C(C)NC(=O)C(C)NC(=O)C(C)NC(=O)OCc1ccccc1 (stereo unspecified) (Cbz-AAAAAAA-OEt; configuration not given here) | > 100 µM (inactive) | > 100 µM (inactive) |  | > 100 µM (inactive) | > 100 µM (inactive) | > 100 µM (inactive) | > 100 µM (inactive) | > 100 µM (inactive) | > 100 µM (inactive) | > 100 µM (inactive) | > 100 µM (inactive) | > 100 µM (inactive) | > 100 µM (inactive) | > 100 µM (inactive) | > 100 µM (inactive) | > 100 µM (inactive) | > 100 µM (inactive) | > 100 µM (inactive) | > 100 µM (inactive) | > 100 µM (inactive)
